From US10934310B2, “Inhibitors of Bruton's tyrosine kinase and method of their use” (JANSSEN PHARMACEUTICA NV, priority 2015, dated 2021)

target: unphosphorylated-BTK kinase domain (UP-BTK), GST-tagged human BTK (389-659aa) (Homo sapiens (Human), UniProt Q06187); experiment: BTK Kinase Lanthascreen Binding Assay; conditions: compound, 50 nM Tracer 236, 2 nM anti-GST antibody, 60 minutes; pIC50 = negative log of the IC50 in molar
Experimental: BTK Kinase Lanthascreen Binding Assay:
A BTK kinase lanthascreen binding assay monitors compound binding to unphosphorylated-BTK kinase domain (UP-BTK), by competing with a fluorescent labeled tracer. […] Data were analyzed using Xlfit™ version 5.3 from ID Business Solutions (Guildford), Microsoft Excel add-in. pIC50 refers to the negative log of the IC50 in molar.

Chain of unphosphorylated-BTK kinase domain (UP-BTK), GST-tagged human BTK (389-659aa) (Q06187 389-659): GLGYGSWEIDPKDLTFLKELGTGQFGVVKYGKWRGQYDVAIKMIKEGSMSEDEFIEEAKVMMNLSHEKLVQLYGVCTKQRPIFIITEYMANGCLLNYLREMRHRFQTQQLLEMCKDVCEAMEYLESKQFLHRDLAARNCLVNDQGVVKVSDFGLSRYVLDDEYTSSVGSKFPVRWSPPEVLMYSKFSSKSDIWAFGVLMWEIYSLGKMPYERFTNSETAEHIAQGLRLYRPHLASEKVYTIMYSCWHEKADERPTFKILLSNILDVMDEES

Row | Compound | BTK_I_binding pIC50
1 | C=CC(=O)N[C@H]1CCCC[C@H]1NC(=O)c1sc2nccc3c2c1NC(=O)N3c1ccnc(-c2ccccc2)c1 [Example 168, N-((1R,2S)-2-Acrylamidocyclohexyl)-4-oxo-5-(2-phenylpyridin-4-yl)-4,5-dihydro-3H-1-thia-3,5,8-triazaacenaphthylene-2-carboxamide] | 8.10
2 | C=CC(=O)N[C@H]1CCCC[C@H]1NC(=O)c1sc2nccc3c2c1NC(=O)N3c1ccc(Oc2ccccc2)nc1 [Example 172, N-((1R,2S)-2-Acrylamidocyclohexyl)-4-oxo-5-(6-phenoxypyridin-3-yl)-4,5-dihydro-3H-1-thia-3,5,8-triazaacenaphthylene-2-carboxamide] | 8.35
3 | C=CC(=O)N[C@@H]1CCC[C@H]1NC(=O)c1sc2nccc3c2c1NC(=O)N3c1ccc(Oc2ccccc2)nc1 [Example 177, N-((1R,2R)-2-Acrylamidocyclopentyl)-4-oxo-5-(6-phenoxypyridin-3-yl)-4,5-dihydro-3H-1-thia-3,5,8-triazaacenaphthylene-2-carboxamide] | 7.49
4 | C=CC(=O)N[C@H]1CCC[C@H]1NC(=O)c1sc2nccc3c2c1NC(=O)N3c1ccc(Oc2ccccc2)nc1 [Example 178, N-((1R,2S)-2-Acrylamidocyclopentyl)-4-oxo-5-(6-phenoxypyridin-3-yl)-4,5-dihydro-3H-1-thia-3,5,8-triazaacenaphthylene-2-carboxamide] | 8.28
5 | C=CC(=O)N[C@H]1CCCC[C@H]1NC(=O)c1sc2nccc3c2c1NC(=O)N3c1cnc(OC2CCC2)cc1C [Example 183, N-((1R,2S)-2-Acrylamidocyclohexyl)-5-(6-cyclobutoxy-4-methylpyridin-3-yl)-4-oxo-4,5-dihydro-3H-1-thia-3,5,8-triazaacenaphthylene-2-carboxamide] | 7.58
6 | C=CC(=O)N[C@@H]1CC[C@@H](NC(=O)c2sc3nccc4c3c2NC(=O)N4c2ccc(Oc3ccccc3)cc2C)C1 [Example 184, N-((1R,3R)-3-Acrylamidocyclopentyl)-5-(2-methyl-4-phenoxyphenyl)-4-oxo-4,5-dihydro-3H-1-thia-3,5,8-triazaacenaphthylene-2-carboxamide] | 7.55
7 | C=CC(=O)N[C@H]1CCCC[C@H]1NC(=O)c1sc2nccc3c2c1NC(=O)N3c1ccc(OC2CCC2)nc1C [Example 187, N-((1R,2S)-2-Acrylamidocyclohexyl)-5-(6-cyclobutoxy-2-methylpyridin-3-yl)-4-oxo-4,5-dihydro-3H-1-thia-3,5,8-triazaacenaphthylene-2-carboxamide] | 7.30
8 | C=CC(=O)N[C@H]1CCC[C@H]1NC(=O)c1sc2nccc3c2c1NC(=O)N3c1cc(-c2ccccc2)ccn1 [Example 189, N-((1R,2S)-2-Acrylamidocyclopentyl)-4-oxo-5-(4-phenylpyridin-2-yl)-4,5-dihydro-3H-1-thia-3,5,8-triazaacenaphthylene-2-carboxamide] | 8.23
9 | C=CC(=O)N[C@H]1CCC[C@H]1NC(=O)c1sc2nccc3c2c1NC(=O)N3c1cncc(-c2ccccc2)c1 [Example 192, N-((1R,2S)-2-Acrylamidocyclopentyl)-4-oxo-5-(5-phenylpyridin-3-yl)-4,5-dihydro-3H-1-thia-3,5,8-triazaacenaphthylene-2-carboxamide] | 7.92
10 | C=CC(=O)N[C@H]1CCC[C@H]1NC(=O)c1sc2nccc3c2c1NC(=O)N3c1cccc(-c2ccccc2)c1 [Example 193, 5-([1,1′-Biphenyl]-3-yl)-N-((1R,2S)-2-acrylamidocyclopentyl)-4-oxo-4,5-dihydro-3H-1-thia-3,5,8-triazaacenaphthylene-2-carboxamide] | 8.09
11 | C=CC(=O)N[C@H]1CCC[C@H]1NC(=O)c1sc2nccc3c2c1NC(=O)N3c1cccc(-c2ccccn2)c1 [Example 194, N-((1R,2S)-2-Acrylamidocyclopentyl)-4-oxo-5-(3-(pyridin-2-yl)phenyl)-4,5-dihydro-3H-1-thia-3,5,8-triazaacenaphthylene-2-carboxamide] | 7.89
12 | C=CC(=O)N[C@H]1CCC[C@H]1NC(=O)c1sc2nccc3c2c1NC(=O)N3c1ccc(Oc2cccnc2)cc1C [Example 199, N-((1R,2S)-2-Acrylamidocyclopentyl)-5-(2-methyl-4-(pyridin-3-yloxy)phenyl)-4-oxo-4,5-dihydro-3H-1-thia-3,5,8-triazaacenaphthylene-2-carboxamide] | 8.13
13 | C=CC(=O)N[C@H]1CCC[C@H]1NC(=O)c1sc2nccc3c2c1NC(=O)N3c1cnc(Oc2ccccc2)cn1 [Example 201, N-((1R,2S)-2-Acrylamidocyclopentyl)-4-oxo-5-(5-phenoxypyrazin-2-yl)-4,5-dihydro-3H-1-thia-3,5,8-triazaacenaphthylene-2-carboxamide] | 8.32
14 | C=CC(=O)N[C@H]1CCC[C@H]1NC(=O)c1sc2nccc3c2c1NC(=O)N3c1ccnc(C(C)C)c1 [Example 207, N-((1R,2S)-2-Acrylamidocyclopentyl)-5-(2-isopropylpyridin-4-yl)-4-oxo-4,5-dihydro-3H-1-thia-3,5,8-triazaacenaphthylene-2-carboxamide] | 7.53

The remaining lines, values ahead:

Row | BTK_I_binding pIC50 | Compound
15 | 8.26 | C=CC(=O)N[C@H]1CCC[C@H]1NC(=O)c1sc2nccc3c2c1NC(=O)N3c1ccnc(-c2ccccc2)c1 [Example 169, N-((1R,2S)-2-Acrylamidocyclopentyl)-4-oxo-5-(2-phenylpyridin-4-yl)-4,5-dihydro-3H-1-thia-3,5,8-triazaacenaphthylene-2-carboxamide]
16 | 8.37 | C=CC(=O)N[C@H]1CCC[C@H]1NC(=O)c1sc2nccc3c2c1NC(=O)N3c1ccc(Oc2ccccc2)cn1 [Example 179, N-((1R,2S)-2-Acrylamidocyclopentyl)-4-oxo-5-(5-phenoxypyridin-2-yl)-4,5-dihydro-3H-1-thia-3,5,8-triazaacenaphthylene-2-carboxamide]
17 | 7.56 | C=CC(=O)N[C@@H]1CCC[C@H]1NC(=O)c1sc2nccc3c2c1NC(=O)N3c1ccc(Oc2ccccc2)cn1 [Example 185, N-((1R,2R)-2-Acrylamidocyclopentyl)-4-oxo-5-(5-phenoxypyridin-2-yl)-4,5-dihydro-3H-1-thia-3,5,8-triazaacenaphthylene-2-carboxamide]
18 | 7.95 | C=CC(=O)N[C@@H]1CC[C@H](NC(=O)c2sc3nccc4c3c2NC(=O)N4c2ccc(Oc3ccccc3)c(Cl)c2)C1 [Example 191, N-((1S,3R)-3-Acrylamidocyclopentyl)-5-(3-chloro-4-phenoxyphenyl)-4-oxo-4,5-dihydro-3H-1-thia-3,5,8-triazaacenaphthylene-2-carboxamide]
19 | 7.98 | C=CC(=O)N[C@@H]1CC[C@H](NC(=O)c2sc3nccc4c3c2NC(=O)N4c2ccnc(-c3ccccc3)c2)C1 [Example 198, N-((1S,3R)-3-Acrylamidocyclopentyl)-4-oxo-5-(2-phenylpyridin-4-yl)-4,5-dihydro-3H-1-thia-3,5,8-triazaacenaphthylene-2-carboxamide]
20 | 7.90 | C=CC(=O)N[C@H]1CCC[C@H]1NC(=O)c1sc2nccc3c2c1NC(=O)N3c1cccc(-c2cccnc2)c1 [Example 202, N-((1R,2S)-2-Acrylamidocyclopentyl)-4-oxo-5-(3-(pyridin-3-yl)phenyl)-4,5-dihydro-3H-1-thia-3,5,8-triazaacenaphthylene-2-carboxamide]
21 | 8.06 | C=CC(=O)N[C@H]1CCC[C@H]1NC(=O)c1sc2nccc3c2c1NC(=O)N3c1cnnc(-c2ccccc2)c1 [Example 203, N-((1R,2S)-2-Acrylamidocyclopentyl)-4-oxo-5-(6-phenylpyridazin-4-yl)-4,5-dihydro-3H-1-thia-3,5,8-triazaacenaphthylene-2-carboxamide]
22 | 7.62 | C=CC(=O)N[C@H]1CCC[C@H]1NC(=O)c1sc2nccc3c2c1NC(=O)N3c1ccc(OC(C)C)cc1 [Example 205, N-((1R,2S)-2-Acrylamidocyclopentyl)-5-(4-isopropoxyphenyl)-4-oxo-4,5-dihydro-3H-1-thia-3,5,8-triazaacenaphthylene-2-carboxamide]
23 | 7.33 | C=CC(=O)N[C@H]1CCC[C@H]1NC(=O)c1sc2nccc3c2c1NC(=O)N3c1ccc(OC2CCOCC2)cc1C [Example 206, N-((1R,2S)-2-Acrylamidocyclopentyl)-5-(2-methyl-4-((tetrahydro-2H-pyran-4-yl)oxy)phenyl)-4-oxo-4,5-dihydro-3H-1-thia-3,5,8-triazaacenaphthylene-2-carboxamide]
24 | 6.92 | C=CC(=O)N[C@H]1CCCC[C@H]1NC(=O)c1sc2nccc3c2c1NC(=O)N3c1ccc(OC(C)C)nc1C [Example 211, N-((1R,2S)-2-Acrylamidocyclohexyl)-5-(6-isopropoxy-2-methylpyridin-3-yl)-4-oxo-4,5-dihydro-3H-1-thia-3,5,8-triazaacenaphthylene-2-carboxamide]
25 | 7.49 | C=CC(=O)N[C@@H]1CC[C@@H](NC(=O)c2sc3nccc4c3c2NC(=O)N4c2ccnc(-c3ccccc3)c2)C1 [Example 212, N-((1R,3R)-3-Acrylamidocyclopentyl)-4-oxo-5-(2-phenylpyridin-4-yl)-4,5-dihydro-3H-1-thia-3,5,8-triazaacenaphthylene-2-carboxamide]

same assay, conditions: read-out: BTK_I_binding pIC50 (converted)

Row | IC50 [nM] | Compound
26 | > 1000 | C=CC(=O)N[C@H]1CC[C@@H](NC(=O)c2sc3nccc4c3c2NC(=O)N4c2ccnc(-c3ccccc3)c2)C1 [Example 208, N-((1R,3S)-3-Acrylamidocyclopentyl)-4-oxo-5-(2-phenylpyridin-4-yl)-4,5-dihydro-3H-1-thia-3,5,8-triazaacenaphthylene-2-carboxamide]
